# Test results as given in patent US20050209157A1, “Short bioactive peptides and methods for their use” (priority 2001, published 2005).
# Like-named read-outs stand apart in the source and are kept apart here. No end group written: not given here.
# Key:
# [1] = system: Candida glabrata ATCC15126; experiment: Antimicrobial assays II, NCCLS broth microdilution MIC; format: cell-based; conditions: in µg/mL
# [2] = system: Pseudomonas aeruginosa H187; format: cell-based; conditions: in µg/mL
# S. typhimurium 14028S = format: cell-based, Salmonella typhimurium; conditions: for S. typhimurium 14028S MIC: mean of three, 16 to 20 hours at 35° C., in µg/mL
# P. aeruginosa H374 [3] = format: cell-based, Pseudomonas aeruginosa; conditions: for P. aeruginosa H374 MIC: mean of three, 16 to 20 hours at 35° C.
# WI38 = conditions: MTT, 24 hours with peptide; for WI38 LD50: normal fibroblast line
# E. coli UB1005 = format: cell-based, Escherichia coli; conditions: for E. coli UB1005 MIC: mean of three, 16 to 20 hours at 35° C., in µg/mL
# [4] = system: yeast (Saccharomyces cerevisiae); experiment: Antimicrobial assay I, yeast assay in RPMI 1640; format: cell-based; conditions: RPMI 1640 media
# [5] = system: human red blood cells (RBC); experiment: in vitro; format: cell-based; conditions: hemolytic assay, concentration at 50% hemolysis, 1 hour at 37° C.
# P. aeruginosa H374 [6] = format: cell-based, Pseudomonas aeruginosa; conditions: for MIC Cm-comb.: MIC of chloramphenicol with peptide at ¼ MIC; for MIC Nal-comb.: MIC of nalidixic acid with peptide at ¼ MIC; for FIC Index: 0.5 or less = synergy
# Method: (§1) The synergistic effects of the inventive peptides with either chloramphenicol or nalidixic acid against efflux mutants of Pseudomonas aeruginosa were investigated. The MIC values were determined for either nalidixic acid or chloramphenicol alone as baselines. Peptides were added at their ¼ MIC concentration, and the concentration of either nalidixic acid or chloramphenicol to arrive at the MIC was determined. […] The fractional inhibitory concentration (FIC) index was used to determine synergy between peptides and antibiotics. Two-fold serial dilutions of antibiotic were tested in the presence of a constant amount of peptide, equal to one quarter of peptide MIC. The FIC index was determined as follows: FIC=0.25+MICantibiotic in combination/MICantibiotic alone. An FIC index of 0.5 or less is considered as synergy.
# P. aeruginosa = format: cell-based, Pseudomonas aeruginosa; conditions: P. aeruginosa H744; MIC of nalidixic acid with peptide at ¼ MIC
# Method: as §1
# P. aeruginosa H774 = format: cell-based, Pseudomonas aeruginosa; conditions: P. aeruginosa H744; nalidixic acid + peptide at ¼ MIC; 0.5 or less = synergy
# Method: as §1
# SW480 = experiment: Anti-cancer assay, MTT, LD50; format: cell-based; conditions: SW480 colon adenocarcinoma line, 24 hours with peptide
# Text: (§2) Numbers are LD50 values (μg/mL).
# BMKC = experiment: Anti-cancer assay, MTT, LD50; format: cell-based; conditions: BMKC cloned melanoma line, 24 hours with peptide
# Text: as §2
# H1299 = experiment: Anti-cancer assay, MTT, LD50; format: cell-based; conditions: 24 hours with peptide, lung large cell carcinoma
# Text: as §2
# MCF7 = experiment: Anti-cancer assay, MTT, LD50; format: cell-based; conditions: MCF7 breast adenocarcinoma line, MTT, 24 hours with peptide
# Text: as §2
# PC3 = experiment: Anti-cancer assay, MTT, LD50; format: cell-based; conditions: 24 hours with peptide, prostate adenocarcinoma
# Text: as §2
# HeLaS3 = experiment: Anti-cancer assay, MTT, LD50; format: cell-based; conditions: 24 hours with peptide, cervical carcinoma
# Text: as §2
# [7] = system: Pseudomonas aeruginosa ATCC 9027; experiment: Antimicrobial assay I, MIC by OD measurement; format: cell-based; conditions: 37° C. for 24 hours, absorbance 620 nm
# [8] = system: Staphylococcus aureus ATCC 6538; experiment: Antimicrobial assay I, MIC by OD measurement; format: cell-based; conditions: 37° C. for 24 hours, absorbance 620 nm
# in vitro = conditions: human, WI38 normal lung fibroblast cells, LD50 WI38, WI38 normal lung fibroblast line, MTT, 24 hours with peptide
# Candida albicans 105 = format: cell-based; conditions: Table 13; in µg/mL
# S. aureus (MRSA) = format: cell-based, Staphylococcus aureus; conditions: Table 13, strain SAP0017; in µg/mL
# S. epidermidis C621 = format: cell-based, Staphylococcus epidermidis; conditions: Table 13; in µg/mL
# [9] = chloramphenicol + peptide at ¼ MIC
# [10] = nalidixic acid + peptide at ¼ MIC, FIC=0.25+MIC comb/MIC alone
Compound,MIC C. glabrata ATCC15126 ([1]; Table 8),MIC P. aeruginosa H187 ([2]; Table 8),S. typhimurium 14028S MIC (S. typhimurium 14028S),P. aeruginosa H374 MIC (P. aeruginosa H374 [3]),WI38 LD50 (WI38),E. coli UB1005 MIC (E. coli UB1005),LD50 [5],MIC Cm-comb. (P. aeruginosa H374 [6]),MIC Nal-comb. (P. aeruginosa H374 [6]),FIC Index (P. aeruginosa H374 [6]; [9]),FIC Index (P. aeruginosa H374 [6]; [10]),MIC Nal-comb. (P. aeruginosa),FIC Index (P. aeruginosa H774),LD50 SW480 (SW480),LD50 BMKC (BMKC),H1299 LD50 (H1299),LD50 MCF7 (MCF7),PC3 LD50 (PC3),HeLaS3 LD50 (HeLaS3),CC50 at 24 h (in vitro),also measured
FAKKLAKKLKKLAKLALAL-OH [P29 (14)],128,32,,,,,,,,,,,,,,,,,,,
FAKKLAKLAKKLAKAL-NH2 [P109],,,32,8 µg/mL,> (> indicates greater than 1000),16,> (> indicates greater than 1000),16 µg/mL,2500 µg/mL,1.25,0.75,624 µg/mL,1.25,> (> indicates greater than 1000),> (> indicates greater than 1000),> (> indicates greater than 1000),> (> indicates greater than 1000),> (> indicates greater than 1000),> (> indicates greater than 1000),,LD50 WI38 (WI38; WI38 normal lung fibroblast line): > (> indicates greater than 1000); yeast (MIC or MFC) [4]: 200 µg/mL; paerug9027 (MIC) [7]: 200 µg/mL; staph6538 (MIC) [8]: > (> indicates greater than 200 μg/mL)
"LPKWKVFKKIEKVGRNIRNGIVKAGPAIAVLGEAKALG-NH2 [P306, reference compound]",,,4,8 µg/mL,320 µg/mL,4,> (> indicates greater than 1000),8 µg/mL,5000 µg/mL,0.75,1.25,312 µg/mL,0.75,240 µg/mL,170 µg/mL,120 µg/mL,50 µg/mL,370 µg/mL,250 µg/mL,320 µg/mL,
FAKKLLAKALKL-NH2 [P110],,,32,8 µg/mL,45 µg/mL,16,> (> indicates greater than 1000),16 µg/mL,2500 µg/mL,1.25,0.75,624 µg/mL,1.25,325 µg/mL,400 µg/mL,95 µg/mL,180 µg/mL,> (> indicates greater than 1000),540 µg/mL,45 µg/mL,yeast (MIC or MFC) [4]: 200 µg/mL; paerug9027 (MIC) [7]: 200 µg/mL; staph6538 (MIC) [8]: > (> indicates greater than 200 μg/mL)
FAKKLAKLAKKLAKAL-NH2 [P109 (73)],128,64,,,,,,,,,,,,,,,,,,,
FAKKFAKKFKKFAKKFAKFAFAF-NH2 [P301 (147)],,,,,,,,,,,,,,,,,,,,,"MIC C. albicans 105 (Candida albicans 105): 32; MIC S. typhimurium 14028S (S. typhimurium 14028S; Table 12): 8 µg/mL; MIC C. glabrata ATCC15126 ([1]; Table 13): 32; MIC S. aureus SAP0017 (S. aureus (MRSA)): 8; MIC P. aeruginosa H374 (P. aeruginosa H374 [3]; Table 12, in µg/mL): 4; MIC E. coli UB1005 (E. coli UB1005; Table 12): 8 µg/mL; MIC S. epidermis C621 (S. epidermidis C621): 4; MIC P. aeruginosa H187 ([2]; Table 12): 8"
FAKKLLAKALKL-NH2 [P110 (74)],128,64,,,,,,,,,,,,,,,,,,,
CC(C)C[C@H](NC(=O)[C@H](C)NC(=O)[C@H](CCCCN)NC(=O)[C@H](CC(C)C)NC(=O)[C@H](C)NC(=O)[C@H](CC(C)C)NC(=O)[C@H](C)NC(=O)[C@H](CC(C)C)NC(=O)[C@H](CCCCN)NC(=O)[C@H](C)NC(=O)[C@H](CC(C)C)NC(=O)[C@H](CCCCN)NC(=O)[C@H](CCCCN)NC(=O)[C@H](C)NC(=O)[C@H](CC(C)C)NC(=O)[C@H](CCCCN)NC(=O)[C@H](CCCCN)NC(=O)[C@H](CC(C)C)NC(=O)[C@H](CCCCN)NC(=O)[C@H](CCCCN)NC(=O)[C@H](C)NC(=O)[C@H](CC(C)C)NC(=O)[C@H](CCCCN)NC(=O)[C@H](CCCCN)NC(=O)[C@H](C)NC(=O)[C@@H](N)Cc1ccccc1)C(=O)N[C@@H](C)C(=O)N[C@@H](CC(C)C)C(=O)N[C@@H](CCCCN)C(=O)N[C@@H](C)C(=O)O [P100 (163)],>128,32,,,,,,,,,,,,,,,,,,,
"FAKKLAKLAKKALAL-NH2 [P39, FAKKLAKLAKKALAL-NH2]",,,16,16 µg/mL,300 µg/mL,4,> (> indicates greater than 1000),8 µg/mL,1250 µg/mL,0.75,0.5,624 µg/mL,1.25,435 µg/mL,510 µg/mL,420 µg/mL,130 µg/mL,310 µg/mL,620 µg/mL,300 µg/mL,yeast (MIC or MFC) [4]: 100 µg/mL; paerug9027 (MIC) [7]: 25 µg/mL; staph6538 (MIC) [8]: 100 µg/mL
"CC(C)C[C@H](NC(=O)[C@H](C)NC(=O)[C@H](CCCCN)NC(=O)[C@H](CC(C)C)NC(=O)[C@H](C)NC(=O)[C@H](CC(C)C)NC(=O)[C@H](C)NC(=O)[C@H](CC(C)C)NC(=O)[C@H](CCCCN)NC(=O)[C@H](C)NC(=O)[C@H](CC(C)C)NC(=O)[C@H](CCCCN)NC(=O)[C@H](CCCCN)NC(=O)[C@H](C)NC(=O)[C@H](CC(C)C)NC(=O)[C@H](CCCCN)NC(=O)[C@H](CCCCN)NC(=O)[C@H](CC(C)C)NC(=O)[C@H](CCCCN)NC(=O)[C@H](CCCCN)NC(=O)[C@H](C)NC(=O)[C@H](CC(C)C)NC(=O)[C@H](CCCCN)NC(=O)[C@H](CCCCN)NC(=O)[C@H](C)NC(=O)[C@@H](N)Cc1ccccc1)C(=O)N[C@@H](C)C(=O)N[C@@H](CC(C)C)C(=O)N[C@@H](CCCCN)C(=O)N[C@@H](C)C(=O)O [P100, reference compound]",,,4,8 µg/mL,,0.5,> (> indicates greater than 1000),16 µg/mL,2500 µg/mL,1.25,0.75,624 µg/mL,1.25,82 µg/mL,120 µg/mL,,175 µg/mL,,,95 µg/mL,
